Results on 24 compounds are retold here after patent US12060347B2 (BRISTOL-MYERS SQUIBB COMPANY, priority 2016, dated 2024).

Structures are written as SMILES.

The test has as its target T1, human PAR4 (Homo sapiens, UniProt Q96RI0).
T1 construct: expressed in transfected cells; host or cells: HEK293 PAR4 Clone 1.2A (BMS Arctic ID 383940)
T1 sequence (Q96RI0 18-385): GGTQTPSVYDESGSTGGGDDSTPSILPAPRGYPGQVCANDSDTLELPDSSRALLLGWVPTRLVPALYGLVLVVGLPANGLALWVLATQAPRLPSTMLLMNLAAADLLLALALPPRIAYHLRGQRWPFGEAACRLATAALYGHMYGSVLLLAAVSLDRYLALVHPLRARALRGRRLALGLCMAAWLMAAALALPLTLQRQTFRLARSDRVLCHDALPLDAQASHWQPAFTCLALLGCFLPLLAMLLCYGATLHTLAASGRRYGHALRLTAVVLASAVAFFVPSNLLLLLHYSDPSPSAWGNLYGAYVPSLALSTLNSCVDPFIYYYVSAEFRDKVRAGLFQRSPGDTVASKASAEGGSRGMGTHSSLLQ
Nature of the test: PAR4 FLIPR assay: antagonism of agonist-peptide-induced calcium mobilization in PAR4-expressing HEK293 cells. The test is classed as cell-based. The conditions noted are these: H-Ala-Phe(4-F)-[…]NH2-induced intracellular calcium mobilization, 11-point curves.
In general, IC50 refers to the concentration at which inhibition is half-maximal. For the compound `COc1cnc2c(-c3nc4cc(F)c(O[C@@H](C)[C@@H](C)OC(=O)Nc5cnc(OC[C@H](C)O)nc5)cc4s3)cc(C)cc2n1` [Example 581, (2R,3S)-3-((5-fluoro-2-(2-methoxy-7-methylquinoxalin-5-yl)benzo[d]thiazol-6-yl)oxy)butan-2-yl (2-((S)-2-hydroxypropoxy)pyrimidin-5-yl)carbamate], the IC50 was 4.1 nM.
The value for `CCOc1cnc2c(-c3nc4cc(F)c(O[C@@H](C)[C@@H](C)OC(=O)Nc5cnc(OC[C@H](C)O)nc5)cc4s3)cc(C)cc2n1` [Example 582, (2R,3S)-3-((2-(2-ethoxy-7-methylquinoxalin-5-yl)-5-fluorobenzo[d]thiazol-6-yl)oxy)butan-2-yl (2-((S)-2-hydroxypropoxy)pyrimidin-5-yl)carbamate] was 5.3 nM; that for `COc1cnc2c(-c3nc4c(Cl)c(F)c(OC[C@@H](C)OC(=O)Nc5cnc(C)nc5)cc4s3)cc(C)cc2n1` [Example 589, (R)-1-((4-chloro-5-fluoro-2-(2-methoxy-7-methylquinoxalin-5-yl)benzo[d]thiazol-6-yl)oxy)propan-2-yl (2-methylpyrimidin-5-yl)carbamate] was 0.8 nM; that for `COc1cnc2c(-c3nc4c(Cl)c(F)c(OC[C@@H](C)OC(=O)Nc5cccnc5C)cc4s3)cc(C)cc2n1` [Example 590, (R)-1-((4-chloro-5-fluoro-2-(2-methoxy-7-methylquinoxalin-5-yl)benzo[d]thiazol-6-yl)oxy)propan-2-yl (2-methylpyridin-3-yl)carbamate] was 25 nM.
In the case of `COc1cnc2c(-c3nc4c(Cl)c(F)c(OC[C@@H](C)OC(=O)Nc5cncnc5)cc4s3)cc(C)cc2n1` [Example 591, (R)-1-((4-chloro-5-fluoro-2-(2-methoxy-7-methylquinoxalin-5-yl)benzo[d]thiazol-6-yl)oxy)propan-2-yl pyrimidin-5-ylcarbamate], the IC50 amounted to 7 nM.
Regarding `COc1cnc2c(-c3nc4cc(F)c(OC[C@@H](C)OC(=O)Nc5ccc(C)nc5)cc4s3)cc(C)cc2n1` [Example 592, (R)-1-((5-fluoro-2-(2-methoxy-7-methylquinoxalin-5-yl)benzo[d]thiazol-6-yl)oxy)propan-2-yl (6-methylpyridin-3-yl)carbamate], the IC50 came out at 0.7 nM.
For `COc1cnc2c(-c3nc4c(Cl)c(F)c(OC[C@@H](C)OC(=O)OCc5ccc(N)cn5)cc4s3)cc(C)cc2n1` [Example 596, (R)-(5-aminopyridin-2-yl)methyl (1-((4-chloro-5-fluoro-2-(2-methoxy-7-methylquinoxalin-5-yl)benzo[d]thiazol-6-yl)oxy)propan-2-yl) carbonate] the value was 130 nM; for `COc1cnc2c(-c3nc4cc(F)c(OC[C@@H](C)OC(=O)Nc5cnc(N(C)C)nc5)cc4s3)cc(C)cc2n1` [Example 597, (R)-1-((5-fluoro-2-(2-methoxy-7-methylquinoxalin-5-yl)benzo[d]thiazol-6-yl)oxy)propan-2-yl (2-(dimethylamino)pyrimidin-5-yl)carbamate], 15 nM.
For `COc1cnc2c(-c3nc4cc(F)c(O[C@@H](C)[C@@H](C)OC(=O)Nc5cnc(N(C)C)nc5)cc4s3)cc(C)cc2n1` [Example 598, (2R,3S)-3-((5-fluoro-2-(2-methoxy-7-methylquinoxalin-5-yl)benzo[d]thiazol-6-yl)oxy)butan-2-yl (2-(dimethylamino)pyrimidin-5-yl)carbamate] the value was 3.7 nM.
In the case of `COc1cnc2c(-c3nc4cc(F)c(O[C@@H](C)[C@@H](C)OC(=O)Nc5ccc(N(C)C)nc5)cc4s3)cc(C)cc2n1` [Example 599, (2R,3S)-3-((5-fluoro-2-(2-methoxy-7-methylquinoxalin-5-yl)benzo[d]thiazol-6-yl)oxy)butan-2-yl (6-(dimethylamino)pyridin-3-yl)carbamate], the IC50 was 5.6 nM.
For `COc1cnc2c(-c3nc4cc(F)c(O[C@@H](C)[C@@H](C)OC(=O)Nc5ccc(N6CCOC6=O)nc5)cc4s3)cc(C)cc2n1` [Example 600, (2R,3S)-3-((5-fluoro-2-(2-methoxy-7-methylquinoxalin-5-yl)benzo[d]thiazol-6-yl)oxy)butan-2-yl (6-(2-oxooxazolidin-3-yl)pyridin-3-yl)carbamate] the value was 2.4 nM; for `COc1cnc2c(-c3nc4cc(F)c(O[C@@H](C)[C@@H](C)OC(=O)Nc5ccc(NC(C)=O)nc5)cc4s3)cc(C)cc2n1` [Example 601, (2R,3S)-3-((5-fluoro-2-(2-methoxy-7-methylquinoxalin-5-yl)benzo[d]thiazol-6-yl)oxy)butan-2-yl (6-acetamidopyridin-3-yl)carbamate], 3.5 nM; for `COc1cnc2c(-c3nc4cc(F)c(O[C@@H](C)[C@@H](C)OC(=O)Nc5ccc(N)nc5)cc4s3)cc(C)cc2n1` [Example 602, (2R,3S)-3-((5-fluoro-2-(2-methoxy-7-methylquinoxalin-5-yl)benzo[d]thiazol-6-yl)oxy)butan-2-yl (6-aminopyridin-3-yl)carbamate], 6.4 nM.
Turning to `COc1cnc2c(-c3nc4cc(F)c(O[C@@H](C)[C@@H](C)OC(=O)Nc5ccc(N6CCOCC6)nc5)cc4s3)cc(C)cc2n1` [Example 603, (2R,3S)-3-((5-fluoro-2-(2-methoxy-7-methylquinoxalin-5-yl)benzo[d]thiazol-6-yl)oxy)butan-2-yl (6-morpholinopyridin-3-yl)carbamate], the half-inhibitory concentration (IC50) worked out at 2.1 nM.
The value for `COc1cnc2c(-c3nc4cc(F)c(O[C@@H](C)[C@@H](C)OC(=O)Nc5cnc(NC(=O)c6ccc(F)c(Cl)c6)nc5)cc4s3)cc(C)cc2n1` [Example 604, (2R,3S)-3-((5-fluoro-2-(2-methoxy-7-methylquinoxalin-5-yl)benzo[d]thiazol-6-yl)oxy)butan-2-yl (2-(3-chloro-4-fluorobenzamido)pyrimidin-5-yl)carbamate] was 17 nM; that for `COc1cnc2c(-c3nc4cc(F)c(O[C@@H](C)[C@@H](C)OC(=O)Nc5ccc(N6CCCC6)nc5)cc4s3)cc(C)cc2n1` [Example 605, (2R,3S)-3-((5-fluoro-2-(2-methoxy-7-methylquinoxalin-5-yl)benzo[d]thiazol-6-yl)oxy)butan-2-yl (6-(pyrrolidin-1-yl)pyridin-3-yl)carbamate] was 0.7 nM.
For the compound `COc1cnc2c(-c3nc4cc(F)c(O[C@@H](C)[C@@H](C)OC(=O)Nc5cnc(NCC(C)(C)O)nc5)cc4s3)cc(C)cc2n1` [Example 606, (2R,3S)-3-((5-fluoro-2-(2-methoxy-7-methylquinoxalin-5-yl)benzo[d]thiazol-6-yl)oxy)butan-2-yl (2-((2-hydroxy-2-methylpropyl)amino)pyrimidin-5-yl)carbamate], the IC50 stood at 0.4 nM.
For the compound `COc1cnc2c(-c3nc4cc(F)c(O[C@@H](C)[C@@H](C)OC(=O)Nc5cnc(N(C)S(C)(=O)=O)nc5)cc4s3)cc(C)cc2n1` [Example 607, (2R,3S)-3-((5-fluoro-2-(2-methoxy-7-methylquinoxalin-5-yl)benzo[d]thiazol-6-yl)oxy)butan-2-yl (2-(N-methylmethylsulfonamido)pyrimidin-5-yl)carbamate], the IC50 worked out at 0.2 nM.
For `COc1cnc2c(-c3nc4cc(F)c(O[C@@H](C)[C@@H](C)OC(=O)Nc5cnc(N6CCOCC6)nc5)cc4s3)cc(C)cc2n1` [Example 608, (2R,3S)-3-((5-fluoro-2-(2-methoxy-7-methylquinoxalin-5-yl)benzo[d]thiazol-6-yl)oxy)butan-2-yl (2-morpholinopyrimidin-5-yl)carbamate] the value was 0.5 nM; for `COc1cnc2c(-c3nc4cc(F)c(OC[C@@H](C)OC(=O)Nc5ccc(N6CCOC6=O)nc5)cc4s3)cc(C)cc2n1` [Example 609, (R)-1-((5-fluoro-2-(2-methoxy-7-methylquinoxalin-5-yl)benzo[d]thiazol-6-yl)oxy)propan-2-yl (6-(2-oxooxazolidin-3-yl)pyridin-3-yl)carbamate], 1.9 nM; for `COc1cnc2c(-c3nc4cc(F)c(OC[C@@H](C)OC(=O)Nc5ccc(NC(C)=O)nc5)cc4s3)cc(C)cc2n1` [Example 610, (R)-1-((5-fluoro-2-(2-methoxy-7-methylquinoxalin-5-yl)benzo[d]thiazol-6-yl)oxy)propan-2-yl (6-acetamidopyridin-3-yl)carbamate], 4.3 nM.
For `COc1cnc2c(-c3nc4cc(F)c(OC[C@@H](C)OC(=O)Nc5cncc(CO)c5)cc4s3)cc(C)cc2n1` [Example 611, (R)-1-((5-fluoro-2-(2-methoxy-7-methylquinoxalin-5-yl)benzo[d]thiazol-6-yl)oxy)propan-2-yl (5-(hydroxymethyl)pyridin-3-yl)carbamate] the value was 2.1 nM; for `Cc1cc(-c2nc3cc(F)c(O[C@@H](C)[C@@H](C)OC(=O)Nc4cnc(C)nc4)cc3s2)c2ncc(C(N)=O)nc2c1` [Example 613, (2R,3S)-3-((2-(2-carbamoyl-7-methylquinoxalin-5-yl)-5-fluorobenzo[d]thiazol-6-yl)oxy)butan-2-yl (2-methylpyrimidin-5-yl)carbamate], 65 nM; for `CNC(=O)c1cnc2c(-c3nc4cc(F)c(O[C@@H](C)[C@@H](C)OC(=O)Nc5cnc(C)nc5)cc4s3)cc(C)cc2n1` [Example 614, (2R,3S)-3-((5-fluoro-2-(7-methyl-2-(methylcarbamoyl)quinoxalin-5-yl)benzo[d]thiazol-6-yl)oxy)butan-2-yl (2-methylpyrimidin-5-yl)carbamate], 30 nM.
